Data published in US5498628A, “Naphthamide derivatives” (Institut National de la Sante et de la Recherche Medicale, priority 1991, dated 1996).
Structures can show the parent of a compound that is named as a salt.

What was measured:
[1] = target: HUMAN D3 DOPAMINERGIC RECEPTOR (Homo sapiens, UniProt P35462); assay: biochemical; settings: read-out: Ki VALUE (inhibition constant for binding of [^125 I]iodosulpiride)
Method: The inhibition constants for the binding of [^125 I]iodosulpiride to the D3 receptor were measured as described in the French Patent Application filed by INSERM on 6th Nov. 1990 under No. 90/13731.

dopamine receptors [2] = assay: Antagonism of apomorphine-induced rearing in mice (dopamine receptor blockade in vivo); settings: i.p.
Method: (§1) The capacity to bring about a blockade of the dopamine receptors in vivo was evaluated for some of the compounds according to the invention. The tests used were the antagonism of stereotyped sniffing and rearing induced by apomorphine in mice. These tests have been described by Protais et al. (Psychopharmacology, 1976, 50:1-6) and by Vasse et al. (Naunyn Schmiedeberg's Arch. Pharmacol., 1985, 329:108-116).

dopamine receptors [3] = assay: Antagonism of apomorphine-induced stereotyped sniffing in mice (dopamine receptor blockade in vivo); settings: Mus musculus, ip, read-out: ID50 for the antagonism of sniffing
Method: as §1

UniProt P35462, sequence (P35462 whole entry): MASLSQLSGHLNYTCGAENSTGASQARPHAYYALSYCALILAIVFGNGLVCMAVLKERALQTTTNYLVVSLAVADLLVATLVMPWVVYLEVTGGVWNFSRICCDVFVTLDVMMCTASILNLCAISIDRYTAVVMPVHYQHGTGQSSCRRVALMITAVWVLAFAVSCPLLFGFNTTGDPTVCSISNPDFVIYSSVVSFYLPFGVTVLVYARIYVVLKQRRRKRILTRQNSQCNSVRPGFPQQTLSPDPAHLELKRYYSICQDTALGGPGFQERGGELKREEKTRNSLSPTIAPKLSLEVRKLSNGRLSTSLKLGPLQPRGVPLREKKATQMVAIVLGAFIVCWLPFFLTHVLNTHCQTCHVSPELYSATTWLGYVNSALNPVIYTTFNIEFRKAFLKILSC

Compound | Ki [1] | also measured
COc1c(C(=O)NCC2CCCN2Cc2ccccc2)cc(Cl)c2ccccc12 (stereo not drawn) [Example 13, 4-Chloro-N-[(N-benzyl-2-pyrrolidinyl)methyl]-1-methoxy-2-naphthamide] | 4.7 nM | 
CCN1CCCC1CNC(=O)c1ccc2ccccc2c1OC (stereo not drawn) [Example 4, N-[(N-Ethyl-2-pyrrolidinyl)methyl]-1-methoxy-2-naphthamide] | 35 nM | 
CCN1CCCC1CNC(=O)c1cc([N+](=O)[O-])c2ccccc2c1OC (stereo not drawn) [Example 6, 4-Nitro-N-[(N-ethyl-2-pyrrolidinyl)methyl]-1-methoxy-2-naphthamide] | 0.3 nM | 
CCN1CCCC1CNC(=O)c1cc(Cl)c2ccccc2c1OC (stereo not drawn) [Example 8, 4-Chloro-N-[(N-ethyl-2-pyrrolidinyl)methyl]-1-methoxy-2-naphthamide hydrochloride] | 0.26 nM | ED50 (dopamine receptors [2]; Mus musculus, ip, apomorphine-induced rearing, read-out: ID50 for the antagonism of rearing): 0.16 mg/kg; crossing of the blood-brain barrier (dopamine receptors [2]; inferred from ID50 values for rearing and sniffing): readily crosses the blood-brain barrier; ED50 (dopamine receptors [3]): 0.42 mg/kg
C=CCN1CCCC1CNC(=O)c1cc(C#N)c2ccccc2c1OC (stereo not drawn) [Example 2, N-[(N-allyl-2-pyrrolidinyl)methyl]-1-methoxy-4-cyano-2-naphthamide] | 0.51 nM | 

Continued, in another order:

Ki [1] | Compound | also measured
0.35 nM | C=CCN1CCCC1CNC(=O)c1cc([N+](=O)[O-])c2ccccc2c1OC (stereo not drawn) [Example 17] | 
91 nM | COc1c(C(=O)NCC2CCCN2Cc2ccccc2)ccc2ccccc12 (stereo not drawn) [Example 11, N-[(N-Benzyl-2-pyrrolidinyl)methyl]-1-methoxy-2-naphthamide hydrochloride] | 
0.24 nM | CCCCN1CCCC1CNC(=O)c1cc(Br)c2ccccc2c1OC (stereo not drawn) [Example 1, N-[(N-1-butyl-2-pyrrolidinyl)methyl]-1-methoxy-4-bromo-2-naphthamide hydrochloride] | 
1.7 nM | COc1c(C(=O)NCC2CCCN2Cc2ccccc2)cc([N+](=O)[O-])c2ccccc12 (stereo not drawn) [Example 12, 4-Nitro-N-[(N-benzyl-2-pyrrolidinyl)methyl]-1-methoxy-2-naphthamide] | 
